The text below walks through data of publication PMC9743467 (Matter, 2022).

The test system of series [1] is SARS-CoV-2 PsV. Type of series: cell-based.
The subject of another series is SARS-CoV PsV. The series is classed as cell-based.
The next series concerns VSV-G PsV. The series is classed as cell-based, vesicular stomatitis virus.
Series [2] has as its system SARS-CoV-2 PsV. The series is classed as cell-based. The source holds these as a separate data set.
The subject of series [3] is SARS-CoV-2 (USA-WA1/2020). The series is classed as in vivo, K18-hACE2 mice infected with SARS-CoV-2. The settings on record: n = 8.
The format of series [4] is in vivo, K18-hACE2 mice. The settings on record: n = 8.
For series [5] the following is noted: source not given; cited from earlier work.

For “ACE2: recombinant human angiotensin-converting enzyme 2, soluble, R&D Systems”, the “inhibition of SARS-CoV-2 PsV infection” value in the series with SARS-CoV-2 PsV [1] is “strongly inhibited”. The “inhibition of SARS-CoV PsV infection” value with SARS-CoV PsV is on record as “strongly inhibited”. Also, the “inhibition of VSV-G PsV infection” value with VSV-G PsV is given as “This trend is not observed”. Moreover, the “time at which inhibition equals that of empty filaments” value with SARS-CoV-2 PsV [2] is at most 6 h. The “viral load in SARS-CoV-2-infected lungs” value in series [3] is recorded as “negligible effect on viral load”. In addition, in series [4], the body weight loss entry was “similar”. Also, the pI entry in series [5] was “≈ 5.36”.
